# Results: US20220323406A1, “METHODS AND COMPOSITIONS FOR DIFFERENTIATING STEM CELLS” (Massachusetts Institute of Technology, priority 2019, published 2022)
# Where a name gives a salt, the structure may show the parent alone.
# Assays:
# [1] = system: ENR+CD organoids (ISC to Paneth cell differentiation); experiment: Primary screen: CCh-stimulated lysozyme secretion LYZ.S, 2.5-D 384-well ENR+CD organoid differentiation; assay type: cell-based, mouse; conditions: primary screen
# Source text: (§1) High-throughput screening.
# [2] = system: ENR+CD organoids (ISC to Paneth cell differentiation); experiment: Primary screen: basal (non-stimulated) lysozyme secretion LYZ.NS, 2.5-D 384-well ENR+CD organoid differentiation; assay type: cell-based, mouse; conditions: primary screen; for Z.LYZ.NS: standard z score
# Source text: as §1
# [3] = system: ENR+CD organoids; experiment: Primary screen: ATP (CellTiter-Glo 3D, CTG) cell number/viability, 2.5-D 384-well ENR+CD organoids; conditions: primary screen; for Z.CTG: standard z score;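 for all read-outs here: compounds given at plating and again on day 3 over a 6-day differentiation from ENR+CV stem-cell-enriched precursors, ATP measured on day 6, plate median as control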
# [4] = dose 0.08 uM, FC vs plate median
# [5] = dose 0.40 uM, FC vs plate median
# [6] = dose 2.00 uM, FC vs plate median
# [7] = dose 10.00 uM, FC vs plate median
# [8] = dose 0.08 uM, FC relative to plate median
# [9] = dose 0.40 uM, FC relative to plate median
# [10] = dose 2.00 uM, FC relative to plate median
# [11] = dose 10.00 uM, FC relative to plate median
compound,measurement,setting,value
CC(C)c1onc(-c2c(Cl)cccc2Cl)c1COc1ccc(/C=C/c2cccc(C(=O)O)c2)c(Cl)c1 [GW4064],Dose.FC.LYZ.S (log2 fold change),[1]; dose 0.08 uM,0.028
same,Dose.FC.LYZ.S (log2 fold change),[1]; dose 0.40 uM,0.097
same,Dose.FC.LYZ.S (log2 fold change),[1]; dose 2.00 uM,0.000
same,Dose.FC.LYZ.S (log2 fold change),[1]; dose 10.00 uM,−0.071
same,Dose.FC.LYZ.NS (log2 fold change),[2]; dose 0.08 uM,0.170
same,Z.LYZ.NS (standard z score),[2]; dose 0.08 uM,1.476
same,Dose.FC.LYZ.NS (log2 fold change),[2]; dose 0.40 uM,−0.022
same,Z.LYZ.NS (standard z score),[2]; dose 0.40 uM,−0.194
same,Dose.FC.LYZ.NS (log2 fold change),[2]; dose 2.00 uM,0.022
same,Z.LYZ.NS (standard z score),[2]; dose 2.00 uM,0.196
same,Dose.FC.LYZ.NS (log2 fold change),[2]; dose 10.00 uM,−0.059
same,Z.LYZ.NS (standard z score),[2]; dose 10.00 uM,−0.516
same,Dose.FC.CTG (log2 fold change),[3]; dose 0.08 uM,−0.134
same,Z.CTG (standard z score),[3]; dose 0.08 uM,−0.320
same,Dose.FC.CTG (log2 fold change),[3]; dose 0.40 uM,0.140
same,Z.CTG (standard z score),[3]; dose 0.40 uM,0.334
same,Dose.FC.CTG (log2 fold change),[3]; dose 2.00 uM,−0.145
same,Z.CTG (standard z score),[3]; dose 2.00 uM,−0.346
same,Dose.FC.CTG (log2 fold change),[3]; dose 10.00 uM,−0.157
same,Z.CTG (standard z score),[3]; dose 10.00 uM,−0.375
Cc1cc(Nc2cc(CN3CCOCC3)c3nc(C)c(Cc4ccc(Cl)cc4F)n3n2)n[nH]1 [LY2784544],Dose.FC.LYZ.S (log2 fold change),[1]; dose 0.08 uM,0.123
same,Dose.FC.LYZ.S (log2 fold change),[1]; dose 0.40 uM,0.077
same,Dose.FC.LYZ.S (log2 fold change),[1]; dose 2.00 uM,0.114
same,Dose.FC.LYZ.S (log2 fold change),[1]; dose 10.00 uM,−0.367
same,Dose.FC.LYZ.NS (log2 fold change),[2]; dose 0.08 uM,0.132
same,Z.LYZ.NS (standard z score),[2]; dose 0.08 uM,1.152
same,Dose.FC.LYZ.NS (log2 fold change),[2]; dose 0.40 uM,0.004
same,Z.LYZ.NS (standard z score),[2]; dose 0.40 uM,0.033
same,Dose.FC.LYZ.NS (log2 fold change),[2]; dose 2.00 uM,0.068
same,Z.LYZ.NS (standard z score),[2]; dose 2.00 uM,0.591
same,Dose.FC.LYZ.NS (log2 fold change),[2]; dose 10.00 uM,−0.280
same,Z.LYZ.NS (standard z score),[2]; dose 10.00 uM,−2.439
same,Dose.FC.CTG (log2 fold change),[3]; dose 0.08 uM,0.108
same,Z.CTG (standard z score),[3]; dose 0.08 uM,0.259
same,Dose.FC.CTG (log2 fold change),[3]; dose 0.40 uM,0.062
same,Z.CTG (standard z score),[3]; dose 0.40 uM,0.148
same,Dose.FC.CTG (log2 fold change),[3]; dose 2.00 uM,0.181
same,Z.CTG (standard z score),[3]; dose 2.00 uM,0.433
same,Dose.FC.CTG (log2 fold change),[3]; dose 10.00 uM,−0.831
same,Z.CTG (standard z score),[3]; dose 10.00 uM,−1.984
O=C1NC(=O)/C(=C/c2ccc(-c3ccc(F)cc3O)o2)S1 [AS-252424],Dose.FC.LYZ.S,[1]; dose 0.08 uM,0.072 log2 fold change
same,Dose.FC.LYZ.S,[1]; dose 0.40 uM,−0.008 log2 fold change
same,Dose.FC.LYZ.S,[1]; dose 2.00 uM,−0.074 log2 fold change
same,Dose.FC.LYZ.S,[1]; dose 10.00 uM,−0.022 log2 fold change
same,Dose.FC.LYZ.NS,[2]; dose 0.08 uM,0.070 log2 fold change
same,Z.LYZ.NS (standard z score),[2]; dose 0.08 uM,0.609
same,Dose.FC.LYZ.NS,[2]; dose 0.40 uM,−0.042 log2 fold change
same,Z.LYZ.NS (standard z score),[2]; dose 0.40 uM,−0.368
same,Dose.FC.LYZ.NS,[2]; dose 2.00 uM,−0.080 log2 fold change
same,Z.LYZ.NS (standard z score),[2]; dose 2.00 uM,−0.695
same,Dose.FC.LYZ.NS,[2]; dose 10.00 uM,−0.077 log2 fold change
same,Z.LYZ.NS (standard z score),[2]; dose 10.00 uM,−0.671
same,Dose.FC.CTG,[3]; dose 0.08 uM,0.139 log2 fold change
same,Z.CTG (standard z score),[3]; dose 0.08 uM,0.333
same,Dose.FC.CTG,[3]; dose 0.40 uM,−0.074 log2 fold change
same,Z.CTG (standard z score),[3]; dose 0.40 uM,−0.176
same,Dose.FC.CTG,[3]; dose 2.00 uM,−0.359 log2 fold change
same,Z.CTG (standard z score),[3]; dose 2.00 uM,−0.858
same,Dose.FC.CTG,[3]; dose 10.00 uM,−0.204 log2 fold change
same,Z.CTG (standard z score),[3]; dose 10.00 uM,−0.487
O=C(Nc1cccnc1)N1CCC(Cc2cccc(Oc3ccc(C(F)(F)F)cn3)c2)CC1 [PF-3845],Dose.FC.LYZ.S,[1]; [4],0.027 log2 fold change
same,Dose.FC.LYZ.S,[1]; [5],−0.061 log2 fold change
same,Dose.FC.LYZ.S,[1]; [6],−0.032 log2 fold change
same,Dose.FC.LYZ.S,[1]; [7],−0.195 log2 fold change
same,Z.LYZ.NS,[2]; dose 0.08 uM,0.532
same,Z.LYZ.NS,[2]; dose 0.40 uM,−0.668
same,Z.LYZ.NS,[2]; dose 2.00 uM,−0.131
same,Z.LYZ.NS,[2]; dose 10.00 uM,−1.137
same,Dose.FC.LYZ.NS,[2]; [4],0.061 log2 fold change
same,Dose.FC.LYZ.NS,[2]; [5],−0.077 log2 fold change
same,Dose.FC.LYZ.NS,[2]; [6],−0.015 log2 fold change
same,Dose.FC.LYZ.NS,[2]; [7],−0.131 log2 fold change
same,Z.CTG,[3]; dose 0.08 uM,−0.112
same,Z.CTG,[3]; dose 0.40 uM,0.125
same,Z.CTG,[3]; dose 2.00 uM,−0.246
same,Z.CTG,[3]; dose 10.00 uM,−0.684
same,Dose.FC.CTG,[3]; [4],−0.047 log2 fold change
same,Dose.FC.CTG,[3]; [5],0.052 log2 fold change
same,Dose.FC.CTG,[3]; [6],−0.103 log2 fold change
same,Dose.FC.CTG,[3]; [7],−0.286 log2 fold change
COc1cc2c(Nc3ccc(NC(=O)c4ccccc4)cc3)ncnc2cc1OCCCN1CCOCC1 [ZM 447439],Dose.FC.LYZ.S,[1]; dose 0.08 uM,0.171 log2 fold change
same,Dose.FC.LYZ.S,[1]; dose 0.40 uM,0.108 log2 fold change
same,Dose.FC.LYZ.S,[1]; dose 2.00 uM,0.074 log2 fold change
same,Dose.FC.LYZ.S,[1]; dose 10.00 uM,−0.132 log2 fold change
same,Dose.FC.LYZ.NS,[2]; dose 0.08 uM,0.103 log2 fold change
same,Z.LYZ.NS (standard z score),[2]; dose 0.08 uM,0.896
same,Dose.FC.LYZ.NS,[2]; dose 0.40 uM,0.107 log2 fold change
same,Z.LYZ.NS (standard z score),[2]; dose 0.40 uM,0.932
same,Dose.FC.LYZ.NS,[2]; dose 2.00 uM,0.052 log2 fold change
same,Z.LYZ.NS (standard z score),[2]; dose 2.00 uM,0.456
same,Dose.FC.LYZ.NS,[2]; dose 10.00 uM,−0.080 log2 fold change
same,Z.LYZ.NS (standard z score),[2]; dose 10.00 uM,−0.695
same,Dose.FC.CTG,[3]; dose 0.08 uM,0.512 log2 fold change
same,Z.CTG (standard z score),[3]; dose 0.08 uM,1.222
same,Dose.FC.CTG,[3]; dose 0.40 uM,0.304 log2 fold change
same,Z.CTG (standard z score),[3]; dose 0.40 uM,0.725
same,Dose.FC.CTG,[3]; dose 2.00 uM,0.231 log2 fold change
same,Z.CTG (standard z score),[3]; dose 2.00 uM,0.552
same,Dose.FC.CTG,[3]; dose 10.00 uM,−0.240 log2 fold change
same,Z.CTG (standard z score),[3]; dose 10.00 uM,−0.574
COc1nc(C)cnc1NS(=O)(=O)c1cccnc1-c1ccc(-c2nnco2)cc1 [Zibotentan (ZD4054)],Dose.FC.LYZ.S,[1]; dose 0.08 uM,0.168 log2 fold change
same,Dose.FC.LYZ.S,[1]; dose 0.40 uM,0.130 log2 fold change
same,Dose.FC.LYZ.S,[1]; dose 2.00 uM,−0.038 log2 fold change
same,Dose.FC.LYZ.S,[1]; dose 10.00 uM,0.050 log2 fold change
same,Dose.FC.LYZ.NS,[2]; dose 0.08 uM,0.094 log2 fold change
same,Z.LYZ.NS (standard z score),[2]; dose 0.08 uM,0.820
same,Dose.FC.LYZ.NS,[2]; dose 0.40 uM,0.054 log2 fold change
same,Z.LYZ.NS (standard z score),[2]; dose 0.40 uM,0.474
same,Dose.FC.LYZ.NS,[2]; dose 2.00 uM,−0.003 log2 fold change
same,Z.LYZ.NS (standard z score),[2]; dose 2.00 uM,−0.029
same,Dose.FC.LYZ.NS,[2]; dose 10.00 uM,0.101 log2 fold change
same,Z.LYZ.NS (standard z score),[2]; dose 10.00 uM,0.877
same,Dose.FC.CTG,[3]; dose 0.08 uM,0.104 log2 fold change
same,Z.CTG (standard z score),[3]; dose 0.08 uM,0.249
same,Dose.FC.CTG,[3]; dose 0.40 uM,−0.009 log2 fold change
same,Z.CTG (standard z score),[3]; dose 0.40 uM,−0.022
same,Dose.FC.CTG,[3]; dose 2.00 uM,−0.768 log2 fold change
same,Z.CTG (standard z score),[3]; dose 2.00 uM,−1.834
same,Dose.FC.CTG,[3]; dose 10.00 uM,−0.001 log2 fold change
same,Z.CTG (standard z score),[3]; dose 10.00 uM,−0.003
CC(C)(Cc1ccc2ccccc2c1)NC[C@@H](O)COc1cccc(Cl)c1C#N [NPS-2143],Dose.FC.LYZ.S,[1]; [4],0.147 log2 fold change
same,Dose.FC.LYZ.S,[1]; [5],−0.062 log2 fold change
same,Dose.FC.LYZ.S,[1]; [6],−0.161 log2 fold change
same,Dose.FC.LYZ.S,[1]; [7],−0.116 log2 fold change
same,Z.LYZ.NS,[2]; dose 0.08 uM,1.413
same,Z.LYZ.NS,[2]; dose 0.40 uM,−0.416
same,Z.LYZ.NS,[2]; dose 2.00 uM,−0.674
same,Z.LYZ.NS,[2]; dose 10.00 uM,−0.597
same,Dose.FC.LYZ.NS,[2]; [4],0.162 log2 fold change
same,Dose.FC.LYZ.NS,[2]; [5],−0.048 log2 fold change
same,Dose.FC.LYZ.NS,[2]; [6],−0.077 log2 fold change
same,Dose.FC.LYZ.NS,[2]; [7],−0.069 log2 fold change
same,Z.CTG,[3]; dose 0.08 uM,0.356
same,Z.CTG,[3]; dose 0.40 uM,−0.466
same,Z.CTG,[3]; dose 2.00 uM,−0.587
same,Z.CTG,[3]; dose 10.00 uM,−0.282
same,Dose.FC.CTG,[3]; [4],0.149 log2 fold change
same,Dose.FC.CTG,[3]; [5],−0.195 log2 fold change
same,Dose.FC.CTG,[3]; [6],−0.246 log2 fold change
same,Dose.FC.CTG,[3]; [7],−0.118 log2 fold change
CC(C)NCC(O)COc1cccc2ccccc12 (stereo not drawn) [Propranolol HCl],Dose.FC.LYZ.S,[1]; [8],0.173 log2 fold change
same,Dose.FC.LYZ.S,[1]; [9],0.204 log2 fold change
same,Dose.FC.LYZ.S,[1]; [10],0.091 log2 fold change
same,Dose.FC.LYZ.S,[1]; [11],0.040 log2 fold change
same,Dose.FC.LYZ.NS,[2]; [8],0.048 log2 fold change
same,Z.LYZ.NS,[2]; dose 0.08 uM,0.418
same,Dose.FC.LYZ.NS,[2]; [9],0.074 log2 fold change
same,Z.LYZ.NS,[2]; dose 0.40 uM,0.642
same,Dose.FC.LYZ.NS,[2]; [10],0.164 log2 fold change
same,Z.LYZ.NS,[2]; dose 2.00 uM,1.427
same,Dose.FC.LYZ.NS,[2]; [11],0.032 log2 fold change
same,Z.LYZ.NS,[2]; dose 10.00 uM,0.276
same,Dose.FC.CTG,[3]; [8],0.066 log2 fold change
same,Dose.FC.CTG,[3]; [9],0.054 log2 fold change
same,Dose.FC.CTG,[3]; [10],0.117 log2 fold change
same,Dose.FC.CTG,[3]; [11],0.168 log2 fold change
